Here are results for four compounds from patent US5393875A, “Amino acid derivatives having renin inhibiting activity” (Hoffmann-La Roche Inc., priority 1991, dated 1995).

One assay deals with T1, human renin (Homo sapiens, UniProt P00797).
T1 sequence (P00797 67-406): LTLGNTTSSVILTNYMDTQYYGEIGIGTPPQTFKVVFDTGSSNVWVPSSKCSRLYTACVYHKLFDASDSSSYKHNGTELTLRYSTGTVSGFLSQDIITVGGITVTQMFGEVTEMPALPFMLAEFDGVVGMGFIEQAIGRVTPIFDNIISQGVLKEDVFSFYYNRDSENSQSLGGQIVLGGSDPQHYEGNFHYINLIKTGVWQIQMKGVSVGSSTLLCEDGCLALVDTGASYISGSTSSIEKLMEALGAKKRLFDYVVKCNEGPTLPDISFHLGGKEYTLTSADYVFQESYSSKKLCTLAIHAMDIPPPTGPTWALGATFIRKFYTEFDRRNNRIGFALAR
Put plainly: Test A: in vitro test with pure human renin. As to conditions: human tetradecapeptide substrate, pH 7.4, 3 hours at 37° C., angiotensin I by RIA. The assay is classed as biochemical. Here is the method: A. In vitro test with pure human renin
The test is carried out in Eppendorf test tubes. The incubation mixture consists of (1) 100 μl of human renin in buffer A (0.1M sodium phosphate solution, pH 7.4, containing 0.1% bovine serum albumin, 0.1% sodium azide and 1 mM ethylenediaminetetraacetic acid), sufficient for a renin activity of 2-3 ng of angiotensin I/ml/hr; (2) 145 μl of buffer A: (3) 30 μl of 10 μM human tetradecapeptide renin substrate (hTD) in 10 mM hydrochloric acid: (4) 15 μl of dimethyl sulphoxide with or without inhibitor and (5) 10 μl of a 0.03 molar solution of hydroxyquinoline sulphate in water.
The samples are incubated for three hours at 37° C. and, respectively, 4° C. in triplicate. 2×100 μl samples per experimental test tube are used in order to measure the production of angiotensin I via RIA (standard radioimmunoassay; clinical assay solid phase kit). Cross reactivities of the antibody used in the RIA are: angiotensin I 100%; angiotensin II 0.0013%; hTD (angiotensin I-Val-Ile-His-Ser-OH 0.09%. The production of angiotensin I is determined by the difference between the experiment at 37° C. and that at 4° C.
(§1) The following controls are carried out:
(a) Incubation of hTD samples without renin and without inhibitor at 37° C. and 4° C. The difference between these two values gives the base value of the angiotensin I production.
(b) Incubation of hTD samples with renin, but without inhibitor at 37° C. and 4° C. The difference between these values gives the maximal value of angiotensin I production.
In each sample the base value of the angiotensin I production is subtracted from the angiotensin I production which is determined. The difference between the maximal value and the base value gives the value of the maximal substrate hydrolysis (=100% ) by renin.
The results are given as IC50 values which denote that concentration of the inhibitor at which the enzymatic activity is inhibited by 50%. The IC50 values are determined from a linear regression curve from a logit-log plot.

The next assay deals with T2, renin in human plasma (Homo sapiens, UniProt P00797).
T2 construct: The test solution comprises (1) 225 μl of plasma; from tissue; host or cells: human plasma
T2 sequence (P00797 67-406): T1 sequence (P00797 67-406)
Put plainly: Test B: in vitro test with human plasma. In kind it is biochemical. As to conditions: pH 6, 3 hours at 37° C., angiotensin I by RIA. Here is the method: B. In vitro test with human plasma
The test solution comprises (1) 225 μl of plasma, (2) 10 μl of 8-hydroxyquinoline sulphate in water, (3) 12 μl of sodium phosphate buffer (0.1M), pH 7.4, and […] of different concentrations of renin inhibitor in dimethyl sulphoxide. Tho resulting pH value (pH 6) of tho test solution is stable for the duration of the subsequent incubation. The test tubes are then incubated at 37° C. for 3 hours. The enzyme activity is expressed by determining the angiotensin I produced, which is determined using a comercially available radioimmunoassay kit (Clinical Assays, Cambridge, Mass.).
as §1
MaxP: Maximal production (maximal enzyme activity) in the absence of a renin inhibitor.
MinP: Minimal production (enzyme activity blank) in the presence of a supramaximal concentration of a renin inhibitor.
The MinP is subtracted from the respective angiotensin production in each experiment. These values are converted into percentage inhibition by comparison with the maximal enzyme activity MaxP-MinP. The degree of inhibition is expressed by the IC50 value, i.e. the concentration of inhibitor which reduces the accumulation of angiotensin I by 50%.

One may read the IC50 as the concentration that gives 50% inhibition. Low values mean greater potency, high ones weaker potency.

Consider `COC(=O)[C@H](NC(=O)OC(C)(C)C)C(C)(C)S(=O)(=O)CC(Cc1ccccc1)C(=O)N[C@@H](Cc1c[nH]cn1)C(=O)N[C@@H](CC1CCCCC1)[C@@H](O)[C@@H](O)C1CC1` (single isomer, unassigned) [C, tert-Butyl [(S)-2-[[(S or R)-2-[[(S)-1-[[(1S,2R,3S)-1-(cyclohexylmethyl)-3-cyclopropyl-2,3-dihydroxypropyl]carbamoyl]-2-imidazol-4-ylethyl]carbamoyl]-3-phenylpropyl]sulfonyl]-1-(methoxycarbonyl)-2-methylpropyl]carbamate], for which the IC50 against human renin amounted to 61 pM; on renin in human plasma, 140 pM.

Turning to `COCC(=O)OCC(C)(C)S(=O)(=O)CC(Cc1ccccc1)C(=O)N[C@@H](Cc1c[nH]cn1)C(=O)N[C@@H](CC1CCCCC1)[C@@H](O)[C@@H](O)C1CC1` (single isomer, unassigned) [D, 2-[[(S or R)-2-[[(S)-1-[[(1S,2R,3S)-1-(cyclohexylmethyl)-3-cyclopropyl-2,3-dihydroxypropyl]carbamoyl]-2-imidazol-4-ylethyl]carbamoyl]-3-phenylpropyl]sulfonyl]-2-methylpropyl methoxyacetate], the IC50 on human renin is 200 pM; against renin in human plasma, under 100 pM.

Regarding `CC(C)(C(=O)N1CCOCC1)S(=O)(=O)C[C@@H](Cc1ccccc1)C(=O)N[C@@H](Cc1c[nH]cn1)C(=O)N[C@@H](CC1CCCCC1)[C@@H](O)[C@@H](O)C1CC1` [A, (S)-N-[(1S,2R,3S)-1-(Cyclohexylmethyl)-3-cyclopropyl-2,3-dihydroxypropyl]-α-[(S)-α-[[[1-(morpholinocarbonyl)-1-methylethyl]sulfonyl]methyl]hydrocinnamamido]imadazole-4-propionamide], the IC50 was 30 pM against human renin and 100 pM against renin in human plasma.

With `CC(C)(C(=O)N[C@H]1C(O)O[C@H](CO)[C@@H](O)[C@@H]1O)S(=O)(=O)C[C@@H](Cc1ccccc1)C(=O)N[C@@H](Cc1c[nH]cn1)C(=O)N[C@@H](CC1CCCCC1)[C@@H](O)[C@@H](O)C1CC1` (stereo partly drawn) [B, 2-[2-[[(S)-2-[[(S)-1-[[(1S,2R,3S)-1-(Cyclohexylmethyl)-3-cyclopropyl-2,3-dihydroxypropyl]carbamoyl]-2-imidazol-4-ylethyl]carbamoyl]-3-phenylpropyl]sulfonyl]-2-methylpropionamido]-2-deoxy-D-glucopyranose], the IC50 against human renin came out at 300 pM; on renin in human plasma it was 110 pM.
